According to patent US8076487B2, “Pyridone derivative and herbicide” (Kumiai Chemical Industry Co., Ltd., priority 2006, dated 2011):

Assays:
Type in all cases: in vivo
[1] = system: Japanese bulrush (Scirpus juncoides Roxb.); assay: Test Example 1: herbicidal effect by soil application to paddy field; settings: paddy field soil application; active ingredient 1,000 g per 1 hectare; wettable powder added dropwise to water surface the day after sowing; examined on the 21st day after application
Outline: (§1)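 Under greenhouse conditions, seeds sown on puddled paddy soil in 100 cm2 pots under 3 cm of standing water received the test compound; injury was assessed with a standard scoring scheme three weeks (day 21) after treatment.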

[2] = system: early watergrass (Echinochloa oryzicola Vasing); assay: as above; settings: paddy field soil application; active ingredient 1,000 g per 1 hectare; wettable powder added dropwise to water surface the day after sowing; examined on the 21st day after application
Outline: as §1

[3] = system: heartshape false pickerelweed (Monochoria vaginalis (Burm.f.) C.Presl); assay: as above; settings: paddy field soil application; active ingredient 1,000 g per 1 hectare; wettable powder added dropwise to water surface the day after sowing; examined on the 21st day after application
Outline: as §1

[4] = system: green foxtail (Setaria viridis (L.) P. Beauv.); assay: Test Example 2: herbicidal effect by soil application to upland field; settings: soil surface spray, upland field soil, 1,000 g active ingredient per hectare, 21st day after application
Experimental: (§2) [table] Test Example 2 Test on Herbicidal Effect by Soil Application to Upland field In a 80 cm2 plastic pot, field soil was filled. Seeds of barnyardgrass (Echinochloa crus-galli (L.) P. Beauv. var. crus-galli), green foxtail (Setaria viridis (L.) P. Beauv.), velvetleaf (Abutilon theophrasti medicus), and slender amaranth (Amaranthus viridis L.) were sown and covered with soils. The wettable powder prepared according to Formulation Example 1 was diluted in water and a 1,000 liter equivalent amount per 1 hectare so that the active ingredient becomes 1,000 g per 1 hectare was uniformly sprayed on a soil surface using a small sprayer. Then, on the 21st day after the application to the plants grew in a greenhouse, the herbicidal effect was examined in accordance with a standard shown in Table 34.

[5] = system: velvetleaf (Abutilon theophrasti medicus); assay: as above; settings: soil surface spray, upland field soil, 1,000 g active ingredient per hectare, 21st day after application
Experimental: as §2

[6] = system: slender amaranth (Amaranthus viridis L.); assay: as above; settings: soil surface spray, upland field soil, 1,000 g active ingredient per hectare, 21st day after application
Experimental: as §2

[7] = system: barnyardgrass (Echinochloa crus-galli (L.) P. Beauv. var. crus-galli); assay: as above; settings: soil surface spray, upland field soil, 1,000 g active ingredient per hectare, 21st day after application
Experimental: as §2

Row | Compound | herbicidal effect, Scirpus juncoides Roxb. [1] | herbicidal effect, Echinochloa oryzicola Vasing [2] | herbicidal effect, Monochoria vaginalis (Burm. f.) C. Presl [3] | herbicidal effect (index), Green Foxtail [4] | herbicidal effect (index), Velvetleaf [5] | herbicidal effect (index), Slender Amaranth [6] | herbicidal effect (index), Barnyardgrass [7]
1 | CN(c1ccccc1)n1c(C(F)(F)F)ccc(C(=O)C2=C(O)CCCC2=O)c1=O [I-182] | 5 (90% or more of herbicidal effect and crop phytotoxicity) | 5 (90% or more of herbicidal effect and crop phytotoxicity) | 5 (90% or more of herbicidal effect and crop phytotoxicity) | 4 (70 to less than 90% of herbicidal effect and crop phytotoxicity) | 5 (90% or more of herbicidal effect and crop phytotoxicity) | 5 (90% or more of herbicidal effect and crop phytotoxicity) | 5 (90% or more of herbicidal effect and crop phytotoxicity)
2 | Cn1c(C(F)(F)F)ccc(C(=O)C2=C(O)C3C=CC(C3)C2=O)c1=O (stereo not shown) [III-42] | 5 (90% or more of herbicidal effect and crop phytotoxicity) | 5 (90% or more of herbicidal effect and crop phytotoxicity) | 5 (90% or more of herbicidal effect and crop phytotoxicity) | 3 (50 to less than 70% of herbicidal effect and crop phytotoxicity) | 5 (90% or more of herbicidal effect and crop phytotoxicity) | 5 (90% or more of herbicidal effect and crop phytotoxicity) | 4 (70 to less than 90% of herbicidal effect and crop phytotoxicity)
3 | CCCCCNn1c(C(F)(F)F)ccc(C(=O)C2=C(O)CCCC2=O)c1=O [I-165] | 5 (90% or more of herbicidal effect and crop phytotoxicity) | 5 (90% or more of herbicidal effect and crop phytotoxicity) | 5 (90% or more of herbicidal effect and crop phytotoxicity) | 3 (50 to less than 70% of herbicidal effect and crop phytotoxicity) | 5 (90% or more of herbicidal effect and crop phytotoxicity) | 5 (90% or more of herbicidal effect and crop phytotoxicity) | 5 (90% or more of herbicidal effect and crop phytotoxicity)
4 | CC(CCn1c(C(F)(F)F)ccc(C(=O)c2cnn(C)c2O)c1=O)=C(F)F [IV-32] | 5 (90% or more of herbicidal effect and crop phytotoxicity) | 5 (90% or more of herbicidal effect and crop phytotoxicity) | 5 (90% or more of herbicidal effect and crop phytotoxicity) | 3 (50 to less than 70% of herbicidal effect and crop phytotoxicity) | 5 (90% or more of herbicidal effect and crop phytotoxicity) | 5 (90% or more of herbicidal effect and crop phytotoxicity) | 4 (70 to less than 90% of herbicidal effect and crop phytotoxicity)
5 | CCn1c(C(F)(F)Cl)ccc(C(=O)C2=C(O)CCCC2=O)c1=O [I-226] | 5 (90% or more of herbicidal effect and crop phytotoxicity) | 5 (90% or more of herbicidal effect and crop phytotoxicity) | 5 (90% or more of herbicidal effect and crop phytotoxicity) | 3 (50 to less than 70% of herbicidal effect and crop phytotoxicity) | 5 (90% or more of herbicidal effect and crop phytotoxicity) | 5 (90% or more of herbicidal effect and crop phytotoxicity) | 4 (70 to less than 90% of herbicidal effect and crop phytotoxicity)
6 | CCCS(=O)(=O)Oc1c(C(=O)c2ccc(C(F)(F)F)n(CCS(C)(=O)=O)c2=O)cnn1C [IV-55] | 4 (70 to less than 90% of herbicidal effect and crop phytotoxicity) | 4 (70 to less than 90% of herbicidal effect and crop phytotoxicity) | 5 (90% or more of herbicidal effect and crop phytotoxicity) | 5 (90% or more of herbicidal effect and crop phytotoxicity) | 4 (70 to less than 90% of herbicidal effect and crop phytotoxicity) | 5 (90% or more of herbicidal effect and crop phytotoxicity) | 5 (90% or more of herbicidal effect and crop phytotoxicity)
7 | CCCS(=O)(=O)Oc1c(C(=O)c2ccc(C(F)(F)F)n(-c3cc(F)cc(F)c3)c2=O)c(C)nn1C [IV-82] | 3 (50 to less than 70% of herbicidal effect and crop phytotoxicity) | 5 (90% or more of herbicidal effect and crop phytotoxicity) | 5 (90% or more of herbicidal effect and crop phytotoxicity) | 4 (70 to less than 90% of herbicidal effect and crop phytotoxicity) | 5 (90% or more of herbicidal effect and crop phytotoxicity) | 4 (70 to less than 90% of herbicidal effect and crop phytotoxicity) | 5 (90% or more of herbicidal effect and crop phytotoxicity)
8 | C#CCOc1c(C(=O)c2ccc(C(F)(F)F)n(C)c2=O)cnn1C [IV-189] | 5 (90% or more of herbicidal effect and crop phytotoxicity) | 5 (90% or more of herbicidal effect and crop phytotoxicity) | 5 (90% or more of herbicidal effect and crop phytotoxicity) | 4 (70 to less than 90% of herbicidal effect and crop phytotoxicity) | 4 (70 to less than 90% of herbicidal effect and crop phytotoxicity) | 5 (90% or more of herbicidal effect and crop phytotoxicity) | 5 (90% or more of herbicidal effect and crop phytotoxicity)
9 | CCCn1c(C(F)(F)F)c(C)cc(C(=O)c2cnn(C)c2O)c1=O [IV-241] | 5 (90% or more of herbicidal effect and crop phytotoxicity) | 5 (90% or more of herbicidal effect and crop phytotoxicity) | 5 (90% or more of herbicidal effect and crop phytotoxicity) | 3 (50 to less than 70% of herbicidal effect and crop phytotoxicity) | 5 (90% or more of herbicidal effect and crop phytotoxicity) | 5 (90% or more of herbicidal effect and crop phytotoxicity) | 4 (70 to less than 90% of herbicidal effect and crop phytotoxicity)
10 | Cn1ncc(C(=O)c2ccc(C(F)(F)F)n(CC3CCCO3)c2=O)c1OC(=O)c1c(Cl)cc(Cl)cc1Cl (stereo not shown) [IV-133] | 5 (90% or more of herbicidal effect and crop phytotoxicity) | 5 (90% or more of herbicidal effect and crop phytotoxicity) | 5 (90% or more of herbicidal effect and crop phytotoxicity) | 3 (50 to less than 70% of herbicidal effect and crop phytotoxicity) | 4 (70 to less than 90% of herbicidal effect and crop phytotoxicity) | 5 (90% or more of herbicidal effect and crop phytotoxicity) | 5 (90% or more of herbicidal effect and crop phytotoxicity)
